Source: patent US11466010B2, “Toll-like receptor 8 (TLR8) specific antagonists and methods of making and uses thereof” (The Regents of the University of Colorado, a body corporate, priority 2017, dated 2022)

The compounds below were run against T1, human TLR8 (Homo sapiens, UniProt Q9NR97) (assay: SEAP reporter assay in HEK-Blue TLR8 cells, R848-induced TLR8 signaling). Settings: 1(2H)-phthalazinone and quinoline derivatives in HEK-Blue hTLR8 cells.
T1 construct: expressed in transfected cells; host or cells: HEK-Blue Null1 cells, lentiviral infection
T1 sequence (Q9NR97 27-1041): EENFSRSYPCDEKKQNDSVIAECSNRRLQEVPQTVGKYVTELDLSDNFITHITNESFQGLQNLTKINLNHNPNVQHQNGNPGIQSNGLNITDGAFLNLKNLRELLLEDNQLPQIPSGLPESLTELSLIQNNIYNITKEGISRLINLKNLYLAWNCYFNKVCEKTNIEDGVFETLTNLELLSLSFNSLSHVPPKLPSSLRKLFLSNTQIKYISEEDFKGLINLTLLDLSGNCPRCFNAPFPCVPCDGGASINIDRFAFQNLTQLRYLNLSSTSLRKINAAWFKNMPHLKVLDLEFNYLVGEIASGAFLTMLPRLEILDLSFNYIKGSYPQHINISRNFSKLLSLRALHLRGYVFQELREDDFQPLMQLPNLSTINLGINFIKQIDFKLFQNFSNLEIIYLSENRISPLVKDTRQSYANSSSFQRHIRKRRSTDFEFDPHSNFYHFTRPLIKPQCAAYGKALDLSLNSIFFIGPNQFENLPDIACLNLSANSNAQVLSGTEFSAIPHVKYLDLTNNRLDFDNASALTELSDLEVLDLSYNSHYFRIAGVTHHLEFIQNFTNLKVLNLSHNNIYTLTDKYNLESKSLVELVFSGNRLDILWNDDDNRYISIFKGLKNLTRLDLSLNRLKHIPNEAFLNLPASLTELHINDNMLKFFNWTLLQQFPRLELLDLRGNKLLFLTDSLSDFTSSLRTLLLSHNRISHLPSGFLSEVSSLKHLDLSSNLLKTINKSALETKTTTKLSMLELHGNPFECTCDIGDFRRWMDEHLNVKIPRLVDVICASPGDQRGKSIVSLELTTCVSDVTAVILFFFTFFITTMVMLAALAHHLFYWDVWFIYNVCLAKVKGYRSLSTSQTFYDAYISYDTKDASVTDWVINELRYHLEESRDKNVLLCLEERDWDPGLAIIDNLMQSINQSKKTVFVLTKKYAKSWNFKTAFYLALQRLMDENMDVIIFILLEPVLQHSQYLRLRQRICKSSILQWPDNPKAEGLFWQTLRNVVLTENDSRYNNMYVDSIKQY
Format: cell-based
Description: SEAP reporter assay: HEK-Blue TLR8 cells were seeded in tissue culture treated 96-well plates with a density of 7.5×10^4 cells/well in DMEM media supplemented with 10% FBS (phosphatases deactivated with heat). […] Plates are then incubated in humidified incubators containing 5% CO2 at 37° C. for 24 h, after which, 30 μL of culture media was transfer to a new plate and 100 μL of Quanti-Blue (Invivogen) was added, the plate was then incubated at 37° C. till color change (30 min-1 h). Readout of absorbance at 620 nm was quantified using Beckman-Coulter DTX 880 Multimode Detector. […] SEAP assays for each sample were conducted with three biological replicates, each in triplicate.
To establish a robust high throughput assay for TLR8 inhibitors, the inventors first engineered a cell line stably overexpressing the human TLR8 whose activation can be reported by the Secreted Embryonic Alkaline Phosphatase (SEAP) assay. TLR8-overexpresing HEK-Blue cells were prepared by lentiviral infection of HEK-Blue Null1 cells that have null or low basal expression of endogenous TLR genes. […] The TLR8-mediated NF-κB activation can be assessed by measuring the SEAP activity.

Row | SMILES | IC50
1 | Cn1nc(-c2ccccc2)c2ccccc2c1=O [Compound 6, 2-Methyl-4-phenyl-1(2H)-Phthalazinone] | > 20000 nM
2 | O=c1[nH]nc(-c2ccccc2)c2ccccc12 [Compound 5, 4-Phenyl-1(2H)-phthalazinone] | > 20000 nM
3 | Cc1cc(-c2c[nH]c3ccccc23)ccc1O [Compound 47, 3-(4-Hydroxy-3-methylphenyl)-indole] | 2800 ± 690 nM
4 | O=c1[nH]nc(-c2ccc(O)c3ccccc23)c2ccccc12 [Compound 25, 4-(4-Hydroxy-naphthyl)-1(2H)-phthalazinone] | > 20000 nM
5 | Cc1cc(-c2n[nH]c(=O)c3ccccc23)ccc1O [Compound 21, 4-(4-Hydroxy-3-methylphenyl)-1(2H)-phthalazinone] | 1300 ± 320 nM
6 | COc1ccc(-c2n[nH]c(=O)c3ccccc23)cc1 [Compound 9, 4-(4-Methoxyphenyl)-1(2H)-phthalazinone] | > 20000 nM
7 | O=c1[nH]nc(-c2ccc(O)cc2)c2ccccc12 [Compound 19, 4-(4-Hydroxyphenyl)phthalazin-1(2H)-one] | > 20000 nM
8 | Cc1ccc(C)c(-c2n[nH]c(=O)c3ccccc23)c1 [Compound 7, 4-(2,5-Dimethylphenyl)-1(2H)-Phthalazinone] | > 20000 nM
9 | Cc1cc(-c2n[nH]c(=O)c3ccccc23)cc(C)c1O [Compound 20, 4-(4-Hydroxy-3,5-dimethylphenyl)-1(2H)-phthalazinone] | 3910 ± 200 nM
10 | Cc1cc(-c2ccc(O)c3ccccc23)ccc1O [Compound 2, 4-(4-Hydroxy-3-methylphenyl)-1-naphthol] | 480 ± 430 nM
11 | Cc1cc(C)cc(-c2n[nH]c(=O)c3ccccc23)c1 [Compound 8, 4-(3,5-Dimethylphenyl)-1(2H)-phthalazinone] | > 20000 nM
12 | CCc1cc(-c2n[nH]c(=O)c3ccccc23)ccc1O [Compound 22, 4-(4-Hydroxy-3-ethylphenyl)-1(2H)-phthalazinone] | 2730 ± 850 nM
13 | Cc1cc(-c2n[nH]c(=O)c3ccccc23)cc(C)c1C(=O)O [Compound 13, 4-(4-Carboxylic-3,5-dimethylphenyl)-1(2H)-phthalazinone] | > 20000 nM
14 | COC(=O)c1ccc(-c2n[nH]c(=O)c3ccccc23)cc1C [Compound 16, 4-(4-Carbomethoxyl-3-methylphenyl)-1(2H)-phthalazinone] | 8510 ± 3150 nM
15 | Cc1cc(-c2cn(C(=O)OC(C)(C)C)c3ccccc23)ccc1O [Compound 46, N-tert-butoxycarbonyl-3-(4-Hydroxy-3-methylphenyl)-indole] | > 20000 nM
16 | Cc1cc(-c2ccc(N)c3ccccc23)ccc1O [Compound 3, 1-Amino-4-(4-hydroxy-3-methylphenyl)-naphthalene] | 2720 ± 310 nM
17 | Cc1cc(-c2n[nH]c(=O)c3ccccc23)ccc1C(=O)O [Compound 14, 4-(4-Carboxylic-3-methylphenyl)-1(2H)-phthalazinone] | > 20000 nM

Continued, values first:

Row | IC50 | SMILES
18 | 330 ± 40 nM | Cc1cc(-c2nn(C)c(=O)c3ccccc23)ccc1O [Compound 30, 4-(4-Hydroxy-3-methylphenyl)-2-methyl-1(2H)-phthalazinone]
19 | 1220 ± 100 nM | Cc1cc(-c2cccc3ccccc23)cc(C)c1O [Compound 42, 1-(4-Hydroxy-3,5-dimethylphenyl)naphthalene]
20 | > 20000 nM | Cc1cc(-c2n[nH]c(=O)c3ccccc23)c(C)c(C)c1O [Compound 24, 4-(4-Hydroxy-2,3,5-trimethylphenyl)-1(2H)-phthalazinone]
21 | 6750 ± 1300 nM | Cc1cc(-c2nncc3ccccc23)ccc1O [Compound 41, 1-(3-Methyl-4-Hydroxyphenyl)-phthalazine]
22 | 90 ± 30 nM | Cc1cc(-c2ccnc3[nH]ccc23)ccc1O [Compound 49, 4-(4-Hydroxyl-3-methylphenyl)-7-azaindole]
23 | > 20000 nM | Cc1cc(-c2n[nH]c3ccccc23)ccc1O [Compound 48, 3-(4-Hydroxy-3-methylphenyl)-1H-indazole]
24 | 11400 ± 360 nM | Cc1cc(-c2nncc3ccccc23)cc(C)c1O [Compound 40, 1-(3,5-Dimethyl-4-Hydroxyphenyl)-phthalazine]
25 | 340 ± 20 nM | Cc1cc(-c2cnnc3ccccc23)ccc1O [Compound 45, 4-(4-Hydroxy-3-methylphenyl)-cinnolin]
26 | > 20000 nM | CC(C)c1cc(-c2n[nH]c(=O)c3ccccc23)cc(C(C)C)c1O [Compound 23, 4-(4-Hydroxy-3,5-diisopropylphenyl)-1(2H)-phthalazinone]
27 | > 20000 nM | COc1ccc(-c2n[nH]c(=O)c3ccccc23)cc1C(F)(F)F [Compound 27, 4-(4-Methoxyl-3-trifluoromethylphenyl)-1(2H)-phthalazinone]
28 | > 20000 nM | N#Cc1cc(-c2n[nH]c(=O)c3ccccc23)ccc1O [Compound 28, 4-(4-Hydroxy-3-cyanophenyl)-1(2H)-phthalazinone]
29 | > 20000 nM | COc1ccc(-c2n[nH]c(=O)c3ccccc23)cc1[N+](=O)[O-] [Compound 29, 4-(4-Methoxyl-3-nitrophenyl)-1(2H)-phthalazinone]

Same assay, conditions: HEK-Blue TLR8 cells, R848 as agonist

Row | SMILES | IC50
30 | NC(=O)c1cnn2c(-c3ccccc3)ccnc12 [Compound 6e] | 760 nM

Same assay, conditions: pyrazolo[1,5-a]pyrimidine derivatives in HEK-Blue hTLR8 cells; ± SD, at least three biological replicates

Row | SMILES | IC50
31 | NC(=O)c1cnn2c(-c3cccc(Cl)c3)ccnc12 [Compound 6h] | 280 ± 100 nM
32 | CCc1cccc(-c2ccnc3c(C(N)=O)cnn23)c1 [Compound 6m] | 120 ± 23 nM
33 | NC(=O)c1cnn2c(-c3cc(C(F)(F)F)cc(C(F)(F)F)c3)ccnc12 [Compound 6i] | 250 ± 130 nM
34 | CCOC(=O)c1cnn2c(-c3cccc(C)c3)ccnc12 [Compound 3b] | 92 ± 15 nM
35 | NC(=O)c1cnn2c(-c3cccc([N+](=O)[O-])c3)ccnc12 [Compound 6f] | 220 ± 70 nM
36 | COc1cccc(-c2ccnc3c(C(N)=O)cnn23)c1 [Compound 6k] | 1200 nM
37 | NC(=O)c1cnn2c(-c3ccccc3C(F)(F)F)ccnc12 [Compound 6c] | 230 ± 140 nM

Same assay, conditions: quinoline derivatives in HEK-Blue hTLR8 cells; ± SD, at least three biological replicates

Row | SMILES | IC50
38 | Cc1cc(-c2n[nH]c(=O)c3ccccc23)ccc1O [Compound 14b] | 1300 ± 320 nM
39 | O=c1[nH]nc(-c2ccccc2)c2ccccc12 [Compound 14a] | > 20000 nM

Same assay, conditions: same column as E3, cell prints (nM); HEK-Blue hTLR8 cells

Row | IC50 | SMILES
40 | 38.6 ± 5.75 nM | Cc1cc(-c2ccnc3ccccc23)ccc1O [Compound 37, 4-(3-Methyl-4-Hydroxyphenyl)quinoline]
41 | 25.5 ± 10.7 nM | Cc1cc(-c2ccnc3ccccc23)cc(C)c1O [Compound 36, 4-(3,5-Dimethyl-4-Hydroxyphenyl)quinoline]

Same assay, conditions: up to 20 μM

Row | inhibitory activity against TLR8 signaling | SMILES
42 | no significant activity | CCN(CC)C(=O)c1cnn2c(-c3cccc(C(F)(F)F)c3)ccnc12 [Compound 6o]
43 | did not show any inhibitory activity | Cc1cccc(-c2ccnc3c(C(=O)O)cnn23)c1 [Compound 4b]
